# Calls of active or inactive are those of the source. The calls are words filed in the database; no cut-off is given here.
# Legend:
# [1] = target: T1, Tyrosine-protein kinase JAK2 (Homo sapiens, UniProt O60674); assay: Inhibition of JAK2 (unknown origin) by radioactive ATP method
# [2] = target: T2, Tyrosine-protein kinase SYK (Homo sapiens, UniProt P43405); assay: Inhibition of SYK (unknown origin) at 20 uM by radioactive ATP method
# [3] = target: T3, Tyrosine-protein kinase ZAP-70 (Homo sapiens, UniProt P43403); assay: Inhibition of full-length ZAP70 (unknown origin) by radioactive ATP method
# T3 sequence (P43403 whole entry): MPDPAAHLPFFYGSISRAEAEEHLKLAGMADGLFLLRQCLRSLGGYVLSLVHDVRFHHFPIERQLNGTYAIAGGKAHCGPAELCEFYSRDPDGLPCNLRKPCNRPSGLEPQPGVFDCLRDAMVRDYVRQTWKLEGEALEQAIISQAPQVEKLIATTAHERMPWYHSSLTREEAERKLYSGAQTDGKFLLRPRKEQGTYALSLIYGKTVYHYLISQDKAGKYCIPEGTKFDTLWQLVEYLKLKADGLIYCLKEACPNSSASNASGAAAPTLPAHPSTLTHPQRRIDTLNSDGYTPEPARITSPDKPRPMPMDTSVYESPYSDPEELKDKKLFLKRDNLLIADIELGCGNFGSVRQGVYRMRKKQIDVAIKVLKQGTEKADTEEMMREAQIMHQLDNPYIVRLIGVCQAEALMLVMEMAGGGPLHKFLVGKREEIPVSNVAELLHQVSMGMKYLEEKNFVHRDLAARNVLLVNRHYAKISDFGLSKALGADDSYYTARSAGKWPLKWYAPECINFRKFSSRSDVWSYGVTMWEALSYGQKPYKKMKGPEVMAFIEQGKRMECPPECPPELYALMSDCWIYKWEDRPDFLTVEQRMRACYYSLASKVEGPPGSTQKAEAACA
# [4] = target: T4, Tyrosine-protein kinase ZAP-70 (Homo sapiens) (UniProt P43403); assay: Inhibition of full-length ZAP70 (unknown origin) at 20 uM by radioactive ATP method
# T4 sequence (whole entry): T3 sequence (P43403 whole entry)
# [5] = target: T2, Tyrosine-protein kinase SYK; assay: Inhibition of SYK (unknown origin) by radioactive ATP method
# [6] = target: T1, Tyrosine-protein kinase JAK2; assay: Inhibition of JAK2 (unknown origin) at 20 uM by radioactive ATP method
# T1 sequence (O60674 whole entry): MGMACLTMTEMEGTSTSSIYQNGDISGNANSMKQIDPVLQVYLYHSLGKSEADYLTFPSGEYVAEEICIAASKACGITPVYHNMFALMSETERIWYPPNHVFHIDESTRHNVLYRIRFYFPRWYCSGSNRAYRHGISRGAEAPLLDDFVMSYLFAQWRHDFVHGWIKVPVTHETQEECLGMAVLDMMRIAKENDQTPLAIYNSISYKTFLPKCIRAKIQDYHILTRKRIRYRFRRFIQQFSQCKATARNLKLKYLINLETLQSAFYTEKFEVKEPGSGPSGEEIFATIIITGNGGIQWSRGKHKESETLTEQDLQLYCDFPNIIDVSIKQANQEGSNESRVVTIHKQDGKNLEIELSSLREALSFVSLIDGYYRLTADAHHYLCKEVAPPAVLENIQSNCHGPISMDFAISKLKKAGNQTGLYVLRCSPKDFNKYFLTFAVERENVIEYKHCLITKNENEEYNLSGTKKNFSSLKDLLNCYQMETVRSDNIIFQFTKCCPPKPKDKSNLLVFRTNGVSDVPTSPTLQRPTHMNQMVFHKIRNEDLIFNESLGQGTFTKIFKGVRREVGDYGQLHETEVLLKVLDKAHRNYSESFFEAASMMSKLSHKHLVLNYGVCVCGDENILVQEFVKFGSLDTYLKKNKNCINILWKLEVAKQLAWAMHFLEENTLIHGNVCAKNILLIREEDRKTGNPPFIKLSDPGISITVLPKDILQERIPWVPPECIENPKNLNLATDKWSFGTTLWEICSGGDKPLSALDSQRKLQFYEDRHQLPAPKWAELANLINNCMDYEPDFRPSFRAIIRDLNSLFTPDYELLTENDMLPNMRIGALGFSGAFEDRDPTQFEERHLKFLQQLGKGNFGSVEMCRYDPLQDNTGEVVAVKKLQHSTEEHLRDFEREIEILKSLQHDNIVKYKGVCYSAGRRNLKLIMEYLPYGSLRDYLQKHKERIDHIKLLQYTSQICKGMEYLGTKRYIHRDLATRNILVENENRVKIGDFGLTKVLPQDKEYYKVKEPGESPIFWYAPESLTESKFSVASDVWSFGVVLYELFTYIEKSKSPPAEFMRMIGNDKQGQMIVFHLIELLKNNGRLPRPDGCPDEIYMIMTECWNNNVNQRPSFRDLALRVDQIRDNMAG
inhibition [4],other results,SMILES
–,IC50 [1]: 15 µM; inhibition [2]: 16%; IC50 [3]: 22 µM,O=C1NN(c2ccccc2)C(=O)/C1=C\c1cc(Cl)ccc1OCc1ccccc1
inactive,–,Oc1ccc(-c2ccnc3cc(Cl)ccc23)cc1CN1CCCCC1
inactive,–,Cc1cc(NC(=O)c2sc(Nc3ccccc3)nc2N)on1
inactive,–,COc1cccc(-c2ccnc3[nH]n(-c4ccccc4)c(=O)c23)c1
–,IC50 [5]: > 200 µM; IC50 [3]: 29 µM,CCOc1ccc(Nc2nc(N)c(C(=O)c3cccc(OC)c3)s2)cc1
inactive,–,N[C@@H](CO)C(=O)N1CCc2[nH]nc(-c3ccc(F)c(F)c3)c2C1
inactive,–,CCn1c(N)c(-c2csc(-c3ccc(O)cc3)n2)c(=O)[nH]c1=O
inactive,–,COc1ccc(/C=C2/NC(=O)N(c3cccc(Cl)c3)C2=O)cc1O
–,IC50 [5]: 57 µM; IC50 [3]: 14 µM,O=C1NN(c2ccccc2)C(=O)/C1=C/c1ccc(-c2ccccc2Cl)o1
inactive,–,CC(=O)Nc1ccc(OS(=O)(=O)c2ccc3[nH]c(=O)[nH]c3c2)cc1
inactive,–,Cc1ccc2[nH]c3c(c2c1)CCC1C3=NNC1c1ccccc1 (stereo unspecified)
–,IC50 [1]: 11 µM; IC50 [5]: 26 µM; IC50 [3]: 8 µM,O=C1Nc2ccc3c(oc4ccccc43)c2C1=NNc1ccncc1
inactive,–,O=C(c1ccc2[nH]c(=O)[nH]c2c1)N1CCc2[nH]nc(-c3ccccc3)c2C1
inactive,–,O=C1NC(=O)N(c2ccc(F)cc2)C(=O)/C1=C\c1cccn1-c1ccc(O)cc1
inactive,–,N#C/C(=C1/C(=O)Nc2ccccc21)c1nc2ccccc2[nH]1
inactive,–,O=c1[nH]c2ccc(S(=O)(=O)NC3CC3)cc2c2ccccc12

inhibition [4],other results,SMILES
49%,inhibition [2]: 17%,O=C1NN(c2ccccc2)C(=O)/C1=C/c1ccc(-c2ccccc2)o1
–,IC50 [1]: 0.11 µM; IC50 [5]: 12 µM; IC50 [3]: 62 µM,COc1ccc(Nc2nc(N3CCOCC3)c3nc[nH]c3n2)cc1OC
inactive,–,Clc1cccc(C2C=C(c3cccnc3)Nc3nc4ccccc4n32)c1 (stereo unspecified)
inactive,–,CC(C)c1ccc(-c2c(C#N)c(N)nc3sc(C(N)=O)c(N)c23)cc1
43%,inhibition [2]: 16%,Cc1cc(/C=C2/C(=O)NN(c3ccccc3)C2=O)c(C)n1-c1cccc(O)c1
inactive,–,O=C1Nc2ccc(S(=O)(=O)Cc3ccc4ccccc4c3)c3cccc1c23
inactive,–,O=C1NC(=O)N(c2ccccc2F)C(=O)/C1=C\c1cccn1-c1ccccc1
inactive,–,Nc1ccc(C(=O)N2CCc3[nH]nc(-c4cc(F)cc(F)c4)c3C2)cn1
inactive,–,COc1ccc(NC2=NC3NN=C(N)C3C3=C2CN(C)CC3)cc1 (stereo unspecified)
inactive,–,O=C1NC(=O)N(c2cccc(F)c2)C(=O)/C1=C\c1cccn1-c1ccccc1
–,IC50 [5]: 168 µM; IC50 [3]: 21 µM,O=C1NC(=S)N/C1=C1\C(=O)N(Cc2ccccc2Cl)c2ccccc21
inactive,–,O=C(c1ccc2[nH]cnc2c1)N1CCc2[nH]nc(-c3cccc(Cl)c3)c2C1
–,IC50 [5]: 40 µM; IC50 [3]: 26 µM,O=C1Nc2ccccc2/C1=C(\c1ccccc1)c1nc2ccccc2[nH]1
inactive,–,Cc1ccc(-c2n[nH]c3c2CN(c2ncc(F)c(NCCO)n2)CC3)cc1
46%,inhibition [6]: 22%; inhibition [2]: 16%,O=C1NN(c2ccc(F)cc2)C(=O)/C1=C\c1cccc(OCc2ccccc2F)c1
inactive,–,O=C1N/C(=C/c2ccc(O)cc2)C(=O)N1c1ccccc1

# Reference: ChEMBL document CHEMBL3112544, “Discovery of ZAP70 inhibitors by high-throughput docking into a conformation of its kinase domain generated by molecular dynamics” (Bioorg Med Chem Lett, 2013)
